This assay concerns L1210 leukemia ip in BDF1 mice, survival T/C. The assay can be described thus: NCI In Vivo Anticancer Drug Screen. Data for tumor model L1210 Leukemia (intraperitoneal) in B6D2F1 (BDF1) mice. Particulars: higher = longer survival. In a few lines: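 Transplanted-tumor mice were given test agent; controls received vehicle only. Survival readings from the two groups were divided (treated over control).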

Values joined by “and” are separate entries in the source; they are usually repeats but may differ in a detail not shown here. Identical values can stand only once. Toxic doses and inconclusive results are not listed.

For `CO[C@@]12[C@H](COC(N)=O)C3=C(C(=O)C(C)=C(N)C3=O)N1C[C@@H]1N[C@@H]12`, the T/C is, setting by setting: (endpoint: mean survival time, dose: 0.1 mg/kg/injection, schedule: Q01DX Z (ip), vehicle: carboxymethylcellulose (CMC)) 110 % of control; (endpoint: mean survival time, dose: 0.18 mg/kg/injection, schedule: Q04DX002 (ip), vehicle: saline) 106 % of control and 110 % of control; (endpoint: mean survival time, dose: 0.2 mg/kg/injection, schedule: Q01DX Z (ip), vehicle: carboxymethylcellulose (CMC)) 110 % of control; (endpoint: mean survival time, dose: 0.2 mg/kg/injection, schedule: Q02DX010 (ip), vehicle: carboxymethylcellulose (CMC)) 118 % of control; (endpoint: mean survival time, dose: 0.25 mg/kg/injection, schedule: Q01DX Z (ip), vehicle: carboxymethylcellulose (CMC)) 107 % of control; (endpoint: mean survival time, dose: 0.32 mg/kg/injection, schedule: Q01DX Z (ip), vehicle: carboxymethylcellulose (CMC)) 98 % of control. Moreover, the T/C (endpoint: mean survival time, dose: 0.35 mg/kg/injection, schedule: Q01DX009 (ip), vehicle: saline) was 120 % of control; the T/C (endpoint: mean survival time, dose: 0.35 mg/kg/injection, schedule: Q04DX002 (ip), vehicle: saline) is 103 % of control; the T/C (endpoint: mean survival time, dose: 0.4 mg/kg/injection, schedule: Q01DX Z (ip), vehicle: carboxymethylcellulose (CMC)) was 114 % of control and 116 % of control; the T/C (endpoint: mean survival time, dose: 0.4 mg/kg/injection, schedule: Q02DX010 (ip), vehicle: carboxymethylcellulose (CMC)) was 111 % of control and 90 % of control; the T/C (endpoint: mean survival time, dose: 0.5 mg/kg/injection, schedule: Q01DX Z (ip), vehicle: carboxymethylcellulose (CMC)) was 107 % of control and 122 % of control; the T/C (endpoint: mean survival time, dose: 0.53 mg/kg/injection, schedule: Q01DX Z (ip), vehicle: carboxymethylcellulose (CMC)) was 114 % of control. In addition, the T/C by setting is: (endpoint: mean survival time, dose: 0.7 mg/kg/injection, schedule: Q01DX001 (ip), vehicle: saline) 109 % of control; (endpoint: mean survival time, dose: 0.7 mg/kg/injection, schedule: Q04DX002 (ip), vehicle: saline) 103 % of control and 111 % of control; (endpoint: mean survival time, dose: 0.75 mg/kg/injection, schedule: Q01DX001 (ip), vehicle: water) 118 % of control; (endpoint: mean survival time, dose: 0.8 mg/kg/injection, schedule: Q02DX010 (ip), vehicle: carboxymethylcellulose (CMC)) 104 % of control and 121 % of control; (endpoint: mean survival time, dose: 0.86 mg/kg/injection, schedule: Q02DX010 (ip), vehicle: carboxymethylcellulose (CMC)) 117 % of control; (endpoint: mean survival time, dose: 0.9 mg/kg/injection, schedule: Q02DX010 (ip), vehicle: other) 157 % of control and 219 % of control. For the same molecule, the T/C was 114 % of control (endpoint: mean survival time, dose: 0.96 mg/kg/injection, schedule: Q01DX001 (ip), vehicle: acetone); 111 % of control (endpoint: mean survival time, dose: 1.0 mg/kg/injection, schedule: Q01DX001 (ip), vehicle: saline); 161 % of control (endpoint: mean survival time, dose: 1.0 mg/kg/injection, schedule: Q01DX Z (ip), vehicle: carboxymethylcellulose (CMC)); 155 % of control (endpoint: mean survival time, dose: 1.1 mg/kg/injection, schedule: Q01DX009 (ip), vehicle: saline); 171 % of control (endpoint: mean survival time, dose: 1.12 mg/kg/injection, schedule: Q01DX015 (ip), vehicle: carboxymethylcellulose (CMC)); 162 % of control (endpoint: mean survival time, dose: 1.25 mg/kg/injection, schedule: Q01DX015 (ip), vehicle: saline). For the same molecule, the T/C (endpoint: mean survival time, dose: 1.3 mg/kg/injection, schedule: Q02DX010 (ip), vehicle: other) was 167 % of control and 207 % of control; the T/C (endpoint: mean survival time, dose: 1.4 mg/kg/injection, schedule: Q01DX001 (ip), vehicle: acetone) is 111 % of control; the T/C (endpoint: mean survival time, dose: 1.4 mg/kg/injection, schedule: Q01DX009 (ip), vehicle: saline) was 154 % of control and 178 % of control; the T/C (endpoint: mean survival time, dose: 1.5 mg/kg/injection, schedule: Q01DX001 (ip), vehicle: saline) is 115 % of control; the T/C (endpoint: mean survival time, dose: 1.5 mg/kg/injection, schedule: Q01DX001 (ip), vehicle: water) was 117 % of control; the T/C (endpoint: mean survival time, dose: 1.5 mg/kg/injection, schedule: Q07DX003 (ip), vehicle: saline) is 123 % of control. Besides, the T/C (endpoint: mean survival time, dose: 1.5 mg/kg/injection, schedule: Q## X003 (ip), vehicle: saline) was 118 % of control; the T/C (endpoint: mean survival time, dose: 1.6 mg/kg/injection, schedule: Q01DX001 (ip), vehicle: saline) is 117 % of control; the T/C (endpoint: mean survival time, dose: 1.9 mg/kg/injection, schedule: Q01DX009 (ip), vehicle: saline) is 97 % of control; the T/C (endpoint: mean survival time, dose: 2.0 mg/kg/injection, schedule: Q01DX Z (ip), vehicle: carboxymethylcellulose (CMC)) was 106 % of control; the T/C (endpoint: mean survival time, dose: 2.0 mg/kg/injection, schedule: Q02DX010 (ip), vehicle: other) is 180 % of control and 184 % of control; the T/C (endpoint: mean survival time, dose: 2.12 mg/kg/injection, schedule: Q02DX010 (ip), vehicle: carboxymethylcellulose (CMC)) was 158 % of control. Further, the T/C reads like this: (endpoint: mean survival time, dose: 2.2 mg/kg/injection, schedule: Q01DX001 (ip), vehicle: saline) 108 % of control; (endpoint: mean survival time, dose: 2.5 mg/kg/injection, schedule: Q01DX015 (ip), vehicle: saline) 154 % of control; (endpoint: mean survival time, dose: 2.8 mg/kg/injection, schedule: Q01DX009 (ip), vehicle: saline) 93 % of control; (endpoint: mean survival time, dose: 3.0 mg/kg/injection, schedule: Q01DX001 (ip), vehicle: saline) 123 % of control; (endpoint: mean survival time, dose: 3.0 mg/kg/injection, schedule: Q02DX010 (ip), vehicle: other) 115 % of control and 118 % of control; (endpoint: mean survival time, dose: 3.0 mg/kg/injection, schedule: Q## X003 (ip), vehicle: saline) 152 % of control. In addition, the T/C is 184 % of control (endpoint: mean survival time, dose: 3.2 mg/kg/injection, schedule: Q02DX010 (ip), vehicle: carboxymethylcellulose (CMC)); 116 % of control (endpoint: mean survival time, dose: 3.3 mg/kg/injection, schedule: Q01DX001 (ip), vehicle: saline); 86 % of control and 88 % of control (endpoint: mean survival time, dose: 4.5 mg/kg/injection, schedule: Q02DX010 (ip), vehicle: other); 118 % of control (endpoint: mean survival time, dose: 5.0 mg/kg/injection, schedule: Q01DX001 (ip), vehicle: saline); 89 % of control (endpoint: mean survival time, dose: 5.0 mg/kg/injection, schedule: Q01DX015 (ip), vehicle: saline); 196 % of control (endpoint: mean survival time, dose: 6.0 mg/kg/injection, schedule: Q01DX001 (ip), vehicle: saline). Moreover, the T/C by setting is: (endpoint: mean survival time, dose: 6.0 mg/kg/injection, schedule: Q01DX001 (ip), vehicle: water) 174 % of control; (endpoint: mean survival time, dose: 6.7 mg/kg/injection, schedule: Q02DX010 (ip), vehicle: carboxymethylcellulose (CMC)) 84 % of control; (endpoint: mean survival time, dose: 7.5 mg/kg/injection, schedule: Q01DX001 (ip), vehicle: saline) 123 % of control; (endpoint: mean survival time, dose: 10.6 mg/kg/injection, schedule: Q04DX002 (ip), vehicle: saline) 171 % of control; (endpoint: mean survival time, dose: 11.0 mg/kg/injection, schedule: Q01DX001 (ip), vehicle: acetone) 193 % of control; (endpoint: mean survival time, dose: 12.0 mg/kg/injection, schedule: Q## X003 (ip), vehicle: saline) 100 % of control. Besides, the T/C (endpoint: mean survival time, dose: 45.0 micrograms/kg/injection, schedule: Q01DX009 (ip), vehicle: saline) was 99 % of control and 117 % of control; the T/C (endpoint: mean survival time, dose: 90.0 micrograms/kg/injection, schedule: Q01DX009 (ip), vehicle: saline) is 106 % of control and 120 % of control; the T/C (endpoint: mean survival time, dose: 180.0 micrograms/kg/injection, schedule: Q01DX009 (ip), vehicle: saline) was 104 % of control and 120 % of control; the T/C (endpoint: mean survival time, dose: 350.0 micrograms/kg/injection, schedule: Q01DX009 (ip), vehicle: saline) is 121 % of control; the T/C (endpoint: mean survival time, dose: 1400.0 micrograms/kg/injection, schedule: Q01DX009 (ip), vehicle: saline) is 153 % of control; the T/C (endpoint: median survival time, dose: 1.5 mg/kg/injection, schedule: Q01DX001 (ip), vehicle: saline) is 100 % of control. The T/C (endpoint: median survival time, dose: 3.0 mg/kg/injection, schedule: Q01DX001 (ip), vehicle: saline) is 109 % of control; the T/C (endpoint: median survival time, dose: 6.0 mg/kg/injection, schedule: Q01DX001 (ip), vehicle: saline) is 109 % of control; the T/C (endpoint: median survival time, dose: 12.0 mg/kg/injection, schedule: Q01DX001 (ip), vehicle: saline) was 117 % of control.

With `O=C(NO)c1ccccc1F`, the T/C reads like this: (endpoint: mean survival time, dose: 100.0 mg/kg/injection, schedule: Q01DX001 (ip), vehicle: saline) 97 % of control; (endpoint: mean survival time, dose: 200.0 mg/kg/injection, schedule: Q01DX001 (ip), vehicle: saline) 110 % of control; (endpoint: mean survival time, dose: 400.0 mg/kg/injection, schedule: Q01DX001 (ip), vehicle: saline) 93 % of control.

With `COC(=O)C([CH2][Sn]([c]1ccccc1)([c]1ccccc1)[c]1ccccc1)NC(=O)Cc1ccccc1` (configuration not stated), the T/C reads like this: (endpoint: mean survival time, dose: 50.0 mg/kg/injection, schedule: Q01DX009 (ip), vehicle: saline) 96 % of control; (endpoint: mean survival time, dose: 100.0 mg/kg/injection, schedule: Q01DX009 (ip), vehicle: saline) 100 % of control; (endpoint: mean survival time, dose: 200.0 mg/kg/injection, schedule: Q01DX009 (ip), vehicle: saline) 100 % of control.

As for `CCOc1ccc(-n2c(=O)c(N=Nc3ccc(Cl)cc3)c(O)n(-c3ccccc3OC)c2=S)cc1`, the T/C runs as follows: (endpoint: mean survival time, dose: 37.5 mg/kg/injection, schedule: Q01DX001 (ip), vehicle: Klucel (hydroxypropylcellulose) (HPC)) 92 % of control; (endpoint: mean survival time, dose: 75.0 mg/kg/injection, schedule: Q01DX001 (ip), vehicle: Klucel (hydroxypropylcellulose) (HPC)) 113 % of control; (endpoint: mean survival time, dose: 150.0 mg/kg/injection, schedule: Q01DX001 (ip), vehicle: Klucel (hydroxypropylcellulose) (HPC)) 103 % of control.
